Laboratory results published in article PMC13295013 (Nature chemical biology, 2026).
Each block holds one compound with its values, some of them ahead of it.

What was measured:
Format in all cases: cell-based
[1] = test system: pErk levels in MDA-MB-453 cells; experiment: Bliss synergy analysis of cobimetinib/LXH-254 pErk titration data, MDA-MB-453 cells; details: combination with LXH-254, MDA-MB-453 cells, p < 0.05
[2] = test system: pMek levels in mutant KRas-expressing lines; experiment: pMek levels in mutant KRas-expressing cell lines treated with Mek inhibitors; details: multiple mutant KRas-expressing lines, 4 h
[3] = molecular target: high-affinity Raf:Mek interactions (Homo sapiens, UniProt Q02750); experiment: Co-immunoprecipitation of Raf with Mek from Mia PaCa-2 cells treated with partial inhibitory doses of Mek inhibitors; details: 4 h
Chain of high-affinity Raf:Mek interactions (Q02750 whole entry): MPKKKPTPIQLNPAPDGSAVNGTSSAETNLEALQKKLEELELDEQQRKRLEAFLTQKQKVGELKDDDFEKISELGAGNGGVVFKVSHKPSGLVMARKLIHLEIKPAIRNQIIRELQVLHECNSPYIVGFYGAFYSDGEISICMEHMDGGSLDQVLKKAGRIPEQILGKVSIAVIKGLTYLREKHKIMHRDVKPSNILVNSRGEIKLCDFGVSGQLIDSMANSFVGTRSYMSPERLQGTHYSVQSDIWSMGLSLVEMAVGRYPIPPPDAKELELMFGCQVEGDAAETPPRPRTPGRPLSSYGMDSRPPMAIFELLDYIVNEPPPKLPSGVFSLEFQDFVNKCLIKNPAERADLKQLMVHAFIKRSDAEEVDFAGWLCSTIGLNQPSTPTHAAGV

[4] = test system: pErk levels in Mia PaCa-2 cells; experiment: Raf inhibitor and Mek inhibitor cotreatments, pErk, Mia PaCa-2 cells
[5] = test system: pErk levels in Mia Paca-2 cells (single encorafenib-occupied Raf dimers); experiment: Encorafenib and LXH-254 cotreatment, pErk, Mia Paca-2 cells; details: encorafenib 1 h, then LXH-254 3 h
[6] = test system: pErk levels in CIAR-293 cells; experiment: Inhibitor titrations in CIAR-293 cells (pErk); details: A115 or DMSO 1 h, then LXH-254 3 h
ARaf:CRaf heterodimers = ARaf:CRaf heterodimers (Homo sapiens, UniProt P04049+P10398); experiment: Co-immunoprecipitation of ARaf with CRaf in MiaPaCa-2 cells treated with LXH-254; details: Mia PaCa-2 cells
Chain of ARaf:CRaf heterodimers (P10398 whole entry): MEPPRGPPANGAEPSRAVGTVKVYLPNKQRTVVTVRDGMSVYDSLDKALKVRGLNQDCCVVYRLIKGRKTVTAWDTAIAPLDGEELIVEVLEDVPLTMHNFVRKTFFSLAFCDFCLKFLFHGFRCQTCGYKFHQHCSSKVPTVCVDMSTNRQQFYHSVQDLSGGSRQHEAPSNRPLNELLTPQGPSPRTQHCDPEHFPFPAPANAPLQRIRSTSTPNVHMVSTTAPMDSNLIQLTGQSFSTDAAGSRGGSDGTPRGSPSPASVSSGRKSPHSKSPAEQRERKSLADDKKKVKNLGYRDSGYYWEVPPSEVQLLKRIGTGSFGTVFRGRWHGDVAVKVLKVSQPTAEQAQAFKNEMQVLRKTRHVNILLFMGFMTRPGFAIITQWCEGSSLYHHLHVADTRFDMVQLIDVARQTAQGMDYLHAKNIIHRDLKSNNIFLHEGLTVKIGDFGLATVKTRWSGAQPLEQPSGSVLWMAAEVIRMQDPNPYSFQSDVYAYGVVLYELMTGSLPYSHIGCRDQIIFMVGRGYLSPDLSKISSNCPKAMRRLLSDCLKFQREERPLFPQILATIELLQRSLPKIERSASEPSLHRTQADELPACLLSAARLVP
Chain of ARaf:CRaf heterodimers (P04049 whole entry): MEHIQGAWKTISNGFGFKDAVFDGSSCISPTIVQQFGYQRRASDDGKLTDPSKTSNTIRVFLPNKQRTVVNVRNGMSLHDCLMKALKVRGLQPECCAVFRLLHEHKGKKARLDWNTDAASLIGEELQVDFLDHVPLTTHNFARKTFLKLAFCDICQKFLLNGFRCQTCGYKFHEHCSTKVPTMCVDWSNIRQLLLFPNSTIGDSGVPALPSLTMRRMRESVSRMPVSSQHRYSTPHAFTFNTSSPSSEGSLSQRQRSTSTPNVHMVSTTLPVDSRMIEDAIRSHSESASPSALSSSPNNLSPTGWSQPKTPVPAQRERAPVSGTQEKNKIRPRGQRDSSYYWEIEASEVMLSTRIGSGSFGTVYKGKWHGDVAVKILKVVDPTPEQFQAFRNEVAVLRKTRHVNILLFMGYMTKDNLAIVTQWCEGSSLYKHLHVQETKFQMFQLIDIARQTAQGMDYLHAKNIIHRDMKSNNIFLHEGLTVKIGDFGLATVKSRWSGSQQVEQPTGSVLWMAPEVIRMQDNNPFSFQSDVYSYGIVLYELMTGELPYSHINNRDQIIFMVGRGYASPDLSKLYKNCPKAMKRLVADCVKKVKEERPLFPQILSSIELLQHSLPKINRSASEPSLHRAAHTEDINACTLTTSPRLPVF

[7] = test system: pErk levels in MDA-MB-453 cells (single encorafenib-occupied Raf dimers); experiment: Encorafenib and LXH-254 cotreatment, pErk, MDA-MB-453 cells; details: encorafenib 1 h, then LXH-254 3 h
[8] = test system: pErk levels in MDA-MB-453 cells; experiment: LXH-254 titration, pErk western blot, MDA-MB-453 cells; details: 4 h LXH-254 treatment
[9] = test system: pErk levels in MDA-MB-231 cells; experiment: LXH-254 titration, pErk western blot, MDA-MB-231 cells; details: 4 h LXH-254 treatment
[10] = test system: pErk levels in Mia PaCa-2 cells; experiment: LXH-254 titration, pErk western blot, Mia PaCa-2 cells; details: at 10–50 μM LXH-254
[11] = test system: pErk levels in HCT-116 (G13D KRas/WT Raf) cells; experiment: LXH-254 titration, pErk western blot, HCT-116 cells
[12] = test system: pErk levels in HCT-116 cells (single encorafenib-occupied Raf dimers); experiment: Encorafenib and LXH-254 cotreatment, pErk, HCT-116 cells; details: encorafenib 1 h, then LXH-254 3 h
[13] = test system: pMek levels in CIAR-293 cells; experiment: pMek levels in CIAR-293 cells treated with A115 or DMSO; details: A115 1 h
[14] = Mia Paca-2 cells, partial (~85%) inhibitory dose 1 h, then LXH-254 3 h

effect on high-affinity Raf:Mek interactions [3]: disrupted
increase in LXH-254's potency (pErk IC50) after Mek inhibitor pretreatment [4, 14]: ~ 4 fold
Structure (SMILES): O=C(c1ccc(F)c(F)c1Nc1ccc(I)cc1F)N1CC(O)([C@@H]2CCCCN2)C1 [cobimetinib]
average Bliss score [1]: 8.72
effect on pMek (Mek activation) relative to DMSO [2]: greatly enhanced

decrease in LXH-254 pErk IC50 after encorafenib pretreatment and washout [5]: ~ 30 fold
LXH-254 concentrations at which ARaf was recruited into heterodimers with CRaf (ARaf:CRaf heterodimers): 10 to 50 µM
decrease in LXH-254 pErk IC50 after encorafenib pretreatment and washout [7]: ~ 20 fold
pErk IC50 [8]: micromolar
pErk IC50 [9]: double-digit nanomolar
pErk IC50 ([11]; 4 h LXH-254 treatment): double-digit nanomolar
decrease in LXH-254 pErk IC50 after encorafenib pretreatment and washout [12]: 2-3 fold
IC50 ([4]; Homo sapiens, MIA PaCa-2, read-out: LXH-254 pErk IC50, DMSO pretreatment): 590 nM
Structure (SMILES): Cc1ccc(NC(=O)c2ccnc(C(F)(F)F)c2)cc1-c1cc(OCCO)nc(N2CCOCC2)c1 [LXH-254]
change of pErk IC50 in A115-treated versus DMSO-treated CIAR-293 cells [6]: four-fold lower
decrease of pErk levels [10]: > 80%
treatment time at which maximal and stable inhibition of downstream signaling (pErk) was achieved ([11]; time course, 32 nM LXH-254, n=1): 4 h

effect on high-affinity Raf:Mek interactions [3]: promoted
effect of Mek inhibitor pretreatment on LXH-254 pErk IC50 / inhibitory activity [4, 14]: potently antagonizes
Structure (SMILES): CNS(=O)(=O)Nc1nccc(Cc2c(C)c3ccc(Oc4ncccn4)cc3oc2=O)c1F [CH5126766]
effect on pMek (Mek activation) relative to DMSO [2]: either reduced or minimally affected

Structure (SMILES): CN(C)CC#Cc1ccc(OCCCc2sc(N3CCc4cccc(C(=O)Nc5nc6ccccc6s5)c4C3)nc2C(=O)O)c(F)c1 [A115]
pMek levels upon A115 treatment versus DMSO [13]: four-fold higher
